Measured values published in the supplement of paper PMC8633005.

Tests used:
FM-MEL-3 [1] = settings: 72 h
Method: (§1)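 Validation dose-response testing of selected drugs on NRAS-mutant melanoma patient-derived cells, run in 2D culture and in 3D spheroids (ultra-low attachment plates), in triplicate per concentration. Viability was read by CellTiter-Glo after 72 h. EC50 came from Breeze curve fitting, and DSS was calculated from the curve.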

FM-MEL-2 [2] = settings: 72 h
Method: as §1

FM-MEL-6 [3] = settings: 72 h
Method: as §1

FM-MEL-3 [4] = assay: drug sensitivity score (DSS) (DSS (unitless)); higher = more sensitive; settings: 72 h
Method: as §1

FM-MEL-2 [5] = assay: as above; settings: 72 h
Method: as §1

FM-MEL-6 [6] = assay: as above; settings: 72 h
Method: as §1

WM165 = assay: drug sensitivity score (DSS) (DSS (unitless, 0-50 scale)); higher = more sensitive (stronger viability inhibition); extreme values may be limits of the assay; settings: 72 h; culture: 2D
Outline: (§2)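 Patient-derived melanoma cultures and melanoma cell lines were grown in 2D in 384-well plates with a 527-compound oncology library at five concentrations spanning a 10,000-fold range, with 1000–1500 cells per well for the cultures. CellTiter-Glo luminescence gave viability after 72 h at 37 °C. The drug sensitivity score is a modified area-under-curve measure derived from dose-response curves fitted in the in-house Breeze software.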

SK-MEL-28 = assay: as above; settings: 72 h; culture: 2D
Outline: as §2

FM-MEL-3 [7] = assay: as above; settings: 72 h; culture: 2D
Outline: as §2

WM852 = assay: as above; settings: 72 h; culture: 2D
Outline: as §2

FM-MEL-2 [8] = assay: as above; settings: 72 h; culture: 2D
Outline: as §2

SK-MEL-2 = assay: as above; settings: 72 h; culture: 2D
Outline: as §2

Bowes = assay: as above; settings: 72 h; culture: 2D
Outline: as §2

FM-MEL-6 [9] = assay: as above; settings: 72 h; culture: 2D
Outline: as §2

SMILES | EC50 (cell viability) (FM-MEL-3 [1]; culture: 2D) [nM] | EC50 (cell viability) (FM-MEL-3 [1]; culture: 3D spheroid) [nM] | EC50 (cell viability) (FM-MEL-2 [2]; culture: 2D) [nM] | EC50 (cell viability) (FM-MEL-2 [2]; culture: 3D spheroid) [nM] | EC50 (cell viability) (FM-MEL-6 [3]; culture: 2D) [nM] | EC50 (cell viability) (FM-MEL-6 [3]; culture: 3D spheroid) [nM] | drug sensitivity score (FM-MEL-3 [4]; culture: 2D) | drug sensitivity score (FM-MEL-3 [4]; culture: 3D spheroid) | drug sensitivity score (FM-MEL-2 [5]; culture: 2D) | drug sensitivity score (FM-MEL-2 [5]; culture: 3D spheroid) | drug sensitivity score (FM-MEL-6 [6]; culture: 2D) | drug sensitivity score (FM-MEL-6 [6]; culture: 3D spheroid) | drug sensitivity score (WM165) | drug sensitivity score (SK-MEL-28) | drug sensitivity score (FM-MEL-3 [7]) | drug sensitivity score (WM852) | drug sensitivity score (FM-MEL-2 [8]) | drug sensitivity score (SK-MEL-2) | drug sensitivity score (Bowes) | drug sensitivity score (FM-MEL-6 [9])
CNc1ncc2cc(-c3cc(NC(=O)NCCC(C)(C)C)c(F)cc3C)c(C)nc2n1 | 83.3 | 64.9 | 59.3 | 59.8 | 187 | 97.3 | 24.5 | 26.6 | 20.6 | 20.8 | 11.3 | 16.9 | 25.4 | 20.3 | 25.4 | 10.2 | 19.9 | 15.2 | 7.4 | 14.4
O=C(Nc1ccc2[nH]nc(-c3ccncc3)c2c1)[C@@H]1CCN(CC(=O)N2CCN(c3ccc(-c4ncccn4)cc3)CC2)C1 | 97.1 | 69 | 206 | 54.5 | 210 | 120 | 22.5 | 26.2 | 17.7 | 25 | 11.2 | 17.2 | 21.2 | 21.8 | 22.8 | 8.2 | 20.8 | 15.6 | 1.3 | 12.7
C=CCn1c(=O)c2cnc(Nc3ccc(N4CCN(C)CC4)cc3)nc2n1-c1cccc(C(C)(C)O)n1 [AZD1775] | 242 | 257 | 378 | 364 | 1800 | > 10000 | 14 | 15.6 | 5.8 | 4.5 | 1.7 | 0 | 13.1 | 4.3 | 12.8 | 14.5 | 7.6 | 11.3 | 15.2 | 12.5
COc1ccc(-c2ccc3c(N4CCOC[C@@H]4C)nc(N4CCOC[C@@H]4C)nc3n2)cc1CO [AZD8055] | 72.8 | 50.7 | 60.6 | 54.1 | 94.2 | 66.2 | 20.3 | 26.2 | 18.2 | 18.1 | 11.3 | 13.4 | 21.7 | 16.4 | 14.2 | 15 | 15.6 | 13.9 | 20.1 | 17.3
Cn1cnc2c(F)c(Nc3ccc(Br)cc3F)c(C(=O)NOCCO)cc21 [Binimetinib] | 7.2 | 10.1 | 40.3 | 28.8 | 34.3 | 15.7 | 19.5 | 21.1 | 11 | 12.9 | 9.4 | 15.7 | 9.5 | 8.8 | 13.7 | 0.4 | 8.7 | 6.3 | 0 | 7.7
O=C(c1ccc(F)c(F)c1Nc1ccc(I)cc1F)N1CC(O)([C@@H]2CCCCN2)C1 [Cobimetinib] | 12.5 | 6.2 | 5.7 | 4 | 28.1 | 8.1 | 20.7 | 26.6 | 20.2 | 21.8 | 10.4 | 19.5 | 21.3 | 21.3 | 20.7 | 4.3 | 15.5 | 11.5 | 0.3 | 9.4
Cn1c(=O)n(-c2ccc(C(C)(C)C#N)cc2)c2c3cc(-c4cnc5ccccc5c4)ccc3ncc21 [Dactolisib] | 22.6 | 7.4 | 15.2 | 12.1 | 26.9 | 13.1 | 13.7 | 22.9 | 13.5 | 14.6 | 7.4 | 10.1 | 17.6 | 13.5 | 15.1 | 10.7 | 12.5 | 9.9 | 12.8 | 15.1
CC(C)NC(=O)COc1cccc(-c2nc(Nc3ccc4[nH]ncc4c3)c3ccccc3n2)c1 [KD025] | > 5000 | 440 | 55.7 | 42.8 | > 5000 | > 5000 | 0 | 4.5 | 21.7 | 24.2 | 0 | 0 | 5.4 | 1.6 | 13 | 7.5 | 18.9 | 0 | 2.6 | 3
Cc1cn(-c2cc(NC(=O)c3ccc(C)c(Nc4nccc(-c5cccnc5)n4)c3)cc(C(F)(F)F)c2)cn1 [Nilotinib] | 940 | 266 | 869 | 270 | > 10000 | > 10000 | 9.5 | 15.1 | 10.9 | 16.7 | 0 | 0 | 0 | 0 | 8.5 | 0.8 | 12.4 | 0 | 0 | 2.1
CCc1c(C(=O)C(N)=O)c2c(OCC(=O)O)cccc2n1Cc1ccccc1 [Varespladib] |  |  |  |  |  |  |  |  |  |  |  |  | 0 | 0 | 0 | 0 | 0 | 0 | 0 | 0
C[C@@H]1COC(Nc2ccc3ncnc(Nc4ccc(OCc5nccs5)c(Cl)c4)c3c2)=N1 [Varlitinib] |  |  |  |  |  |  |  |  |  |  |  |  | 0 | 0.3 | 2.2 | 1.7 | 5.7 | 0 | 0 | 0
Clc1ccc(Nc2nnc(Cc3ccncc3)c3ccccc23)cc1 [Vatalanib] |  |  |  |  |  |  |  |  |  |  |  |  | 0 | 0 | 0 | 0 | 0 | 0 | 0 | 0
C[C@]1(c2nc3c(C(N)=O)cccc3[nH]2)CCCN1 [Veliparib] |  |  |  |  |  |  |  |  |  |  |  |  | 0.9 | 0.2 | 0.6 | 0 | 0.7 | 0 | 0 | 0
CCCS(=O)(=O)Nc1ccc(F)c(C(=O)c2c[nH]c3ncc(-c4ccc(Cl)cc4)cc23)c1F [Vemurafenib] |  |  |  |  |  |  |  |  |  |  |  |  | 10.2 | 13.5 | 0 | 0 | 0 | 0 | 2.4 | 0
CC1(C)CCC(CN2CCN(c3ccc(C(=O)NS(=O)(=O)c4ccc(NCC5CCOCC5)c([N+](=O)[O-])c4)c(Oc4cnc5[nH]ccc5c4)c3)CC2)=C(c2ccc(Cl)cc2)C1 [Venetoclax] |  |  |  |  |  |  |  |  |  |  |  |  | 0 | 0 | 3.6 | 0 | 0 | 0 | 0 | 0
O=C(/C=C\n1cnc(-c2cc(C(F)(F)F)cc(C(F)(F)F)c2)n1)NNc1ccccn1 [Verdinexor] |  |  |  |  |  |  |  |  |  |  |  |  | 9.3 | 5 | 5.3 | 2 | 4.2 | 2.3 | 4.1 | 4
CCCCOc1nc(N)c2c(n1)N(Cc1cccc(CN3CCCC3)c1)CC(=O)N2 [Vesatolimod] |  |  |  |  |  |  |  |  |  |  |  |  | 0 | 0 | 0 | 0 | 0 | 0 | 0 | 0.8
COc1cccc(-c2ccc(NC(=O)C3=C(C(=O)O)CCC3)c(F)c2)c1 [Vidofludimus] |  |  |  |  |  |  |  |  |  |  |  |  | 1.3 | 0 | 0.3 | 0 | 0 | 0 | 0.4 | 0
CC[C@]1(O)C[C@@H]2CN(CCc3c([nH]c4ccccc34)[C@@](C(=O)OC)(c3cc4c(cc3OC)N(C)[C@H]3[C@@](O)(C(=O)OC)[C@H](OC(C)=O)[C@]5(CC)C=CCN6CC[C@]43[C@@H]65)C2)C1 [Vinblastine] |  |  |  |  |  |  |  |  |  |  |  |  | 19.9 | 8.9 | 11.9 | 13.8 | 4.5 | 19.3 | 21.8 | 3.9
CC[C@]1(O)C[C@H]2CN(CCc3c([nH]c4ccccc34)[C@@](C(=O)OC)(c3cc4c(cc3OC)N(C=O)[C@H]3[C@@](O)(C(=O)OC)[C@H](OC(C)=O)[C@]5(CC)C=CCN6CC[C@]43[C@@H]65)C2)C1 [Vincristine] |  |  |  |  |  |  |  |  |  |  |  |  | 20.2 | 10.1 | 12.6 | 16.5 | 4.5 | 18.5 | 18.7 | 7.6
CC[C@]12C=CCN3CC[C@@]4(c5cc([C@@]6(C(=O)OC)C[C@@H]7C[C@@H](C(C)(F)F)CN(Cc8c6[nH]c6ccccc86)C7)c(OC)cc5N(C)[C@H]4[C@@](O)(C(=O)OC)[C@@H]1OC(C)=O)[C@@H]32 [Vinflunine] |  |  |  |  |  |  |  |  |  |  |  |  | 4.6 | 3.5 | 3.2 | 3.5 | 1 | 2.7 | 3.6 | 3.8
CCC1=C[C@@H]2CN(C1)Cc1c([nH]c3ccccc13)[C@@](C(=O)OC)(c1cc3c(cc1OC)N(C)[C@H]1[C@@](O)(C(=O)OC)[C@H](OC(C)=O)[C@]4(CC)C=CCN5CC[C@]31[C@@H]54)C2 [Vinorelbine] |  |  |  |  |  |  |  |  |  |  |  |  | 28.8 | 11 | 12.5 | 23.1 | 7.7 | 25.6 | 31.6 | 23.3
CS(=O)(=O)c1ccc(C(=O)Nc2ccc(Cl)c(-c3ccccn3)c2)c(Cl)c1 [Vismodegib] |  |  |  |  |  |  |  |  |  |  |  |  | 0 | 0 | 0 | 0 | 0 | 0 | 0 | 0
CNC(=O)c1cccc(-c2ccc3c(N4CCOC[C@@H]4C)nc(N4CCOC[C@@H]4C)nc3n2)c1 [Vistusertib] |  |  |  |  |  |  |  |  |  |  |  |  | 12.5 | 12.1 | 11.6 | 8.5 | 11 | 8.8 | 14 | 12.6
CC[C@@H]1C(=O)N(C)c2cnc(Nc3ccc(C(=O)N[C@H]4CC[C@H](N5CCN(CC6CC6)CC5)CC4)cc3OC)nc2N1C(C)C [Volasertib] |  |  |  |  |  |  |  |  |  |  |  |  | 13.3 | 3.1 | 6.5 | 14.9 | 2.6 | 8.1 | 17.5 | 3.7
O=C(CCCCCCC(=O)Nc1ccccc1)NO [Vorinostat] |  |  |  |  |  |  |  |  |  |  |  |  | 9.1 | 7.9 | 9.2 | 4.4 | 5.6 | 6.1 | 0.7 | 8.4
Oc1nc(-c2ccc(C(F)(F)F)cc2)nc2c1CSCC2 [XAV-939] |  |  |  |  |  |  |  |  |  |  |  |  | 0 | 0 | 0 | 0 | 0 | 0 | 0 | 0
FC(F)c1nc2ccccc2n1-c1nc(N2CCOCC2)nc(N2CCOCC2)n1 [ZSTK474] |  |  |  |  |  |  |  |  |  |  |  |  | 9 | 12.2 | 7.2 | 7 | 10.8 | 4.6 | 7 | 8.7
Cc1sc2c(c1C)C(c1ccc(Cl)cc1)=N[C@@H](CC(=O)NCCCCNC(=O)COc1cccc3c1C(=O)N(C1CCC(=O)NC1=O)C3=O)c1nnc(C)n1-2 (stereo not given in full) [dBET1] |  |  |  |  |  |  |  |  |  |  |  |  | 10.3 | 3 | 7.1 | 0 | 3.5 | 0 | 9.1 | 4.6
